Experimental data published in US9561228B2 (Celgene Avilomics Research, Inc., priority 2013, dated 2017).

Experiments:
Type in all cases: cell-based
[1] = tested on: HT-29 cells (colorectal adenocarcinoma); test: Inhibition of cancer cell proliferation, HT-29 (CellTiterGlo, 72 hours); conditions: Homo sapiens
Summary of the method: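 HT-29 cells seeded at 3000/well, then treated with 3-fold serial dilutions from a 5,000 nM two-fold solution in serum-free RPMI1640, untreated wells as control, for 72 h at 37° C. CellTiterGlo luminescence converted to cell number via a standard curve; GI50 from percent inhibition versus untreated growth.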

[2] = tested on: A375 cells (malignant melanoma); test: Inhibition of cancer cell proliferation, A375 (CellTiterGlo, 72 hours); conditions: Homo sapiens, A-375
Summary of the method: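 A375 melanoma cells, 3000/well, exposed 72 h at 37 °C to compound in 3-fold serial dilutions (solution added as 2× stock starting at 5,000 nM in serum-free DMEM). CellTiterGlo luminescence converted to cell number via standard curve; % inhibition vs untreated control, GI50 from curve fit.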

[3] = tested on: ERK1/2 phosphorylation of p90RSK in HCT116 cells; test: Detection of total and phospho-RSK by MSD ELISA (HCT116); conditions: Homo sapiens, HCT-116, read-out: ERK1/ERK2 PRSK HCT116 EC50
Summary of the method: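 HCT116 cells treated with compound in RPMI/10% FBS for 2 h at 37° C, then lysed. Phospho-RSK (Ser380) and total RSK in lysates measured by MSD sandwich electrochemiluminescence ELISA as a readout of ERK1/2 activity.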

Compound | GI50 [1] [nM] | GI50 [2] [nM] | EC50 [3] [nM]
C=CC(=O)Nc1ccccc1Nc1nc(N[C@H]2CCN(C(C)=O)C2)ncc1C(F)(F)F [Compound I-56, (S)—N-(2-((2-((1-Acetylpyrrolidin-3-yl)amino)-5-(trifluoromethyl)pyrimidin-4-yl)amino)phenyl)acrylamide] | 101 to 500 | 101 to 500 | 
C=CC(=O)Nc1ccccc1Nc1nc(N[C@H]2CCN(C(=O)CO)C2)ncc1C(F)(F)F [Compound I-57, (S)—N-(2-((2-((1-(2-Hydroxyacetyl)pyrrolidin-3-yl)amino)-5-(trifluoromethyl)pyrimidin-4-yl)amino)phenyl)acrylamide] | 101 to 500 | 101 to 500 | 
C=CC(=O)Nc1ccccc1Nc1nc(N[C@H]2CCN(S(C)(=O)=O)C2)ncc1C(F)(F)F [Compound I-58, (S)—N-(2-((2-((1-(Methylsulfonyl)pyrrolidin-3-yl)amino)-5-(trifluoromethyl)pyrimidin-4-yl)amino)phenyl)acrylamide] | 101 to 500 | 101 to 500 | 
C=CC(=O)Nc1ccccc1Nc1nc(N[C@H]2CCN(C(=O)OC)C2)ncc1C(F)(F)F [Compound I-59, (S)-methyl 3-((4-((2-Acrylamidophenyl)amino)-5-(trifluoromethyl)pyrimidin-2-yl)amino)pyrrolidine-1-carboxylate] | 101 to 500 | 101 to 500 | 
C=CC(=O)Nc1ccccc1Nc1nc(N[C@@H]2CCN(C(C)=O)C2)ncc1C(F)(F)F [Compound I-60, (R)—N-(2-((2-((1-Acetylpyrrolidin-3-yl)amino)-5-(trifluoromethyl)pyrimidin-4-yl)amino)phenyl)acrylamide] | 101 to 500 | > 1000 | 
C=CC(=O)Nc1cc(OC)ccc1Nc1nc(N[C@H]2CCCN(C(=O)CO)C2)ncc1C(F)(F)F [Compound I-64, (S)—N-(2-((2-((1-(2-Hydroxyacetyl)piperidin-3-yl)amino)-5-(trifluoromethyl)pyrimidin-4-yl)amino)-5-methoxyphenyl)acrylamide] | < 100 | < 100 | 
C=CC(=O)Nc1ccccc1Nc1nc(Nc2cc(C(N)=O)ccc2C)ncc1C(F)(F)F [Compound I-68, 3-(4-(2-Acrylamidophenylamino)-5-(trifluoromethyl)pyrimidin-2-ylamino)-4-methylbenzamide] | < 100 | < 100 | 
C=CC(=O)Nc1cc(OC)ccc1Nc1nc(Nc2cc(OC)nc(N3CCN(CC)CC3)c2)ncc1C(F)(F)F [Compound I-88, N-(2-((2-((2-(4-Ethylpiperazin-1-yl)-6-methoxypyridin-4-yl)amino)-5-(trifluoromethyl)pyrimidin-4-yl)amino)-5-methoxyphenyl)acrylamide] | < 100 | < 100 | 
C=CC(=O)Nc1cc(C)ccc1Nc1nc(Nc2cc(OC)nc(N3CCN(CC)CC3)c2)ncc1C(F)(F)F [Compound I-89, N-(2-((2-((2-(4-Ethylpiperazin-1-yl)-6-methoxypyridin-4-yl)amino)-5-(trifluoromethyl)pyrimidin-4-yl)amino)-5-methylphenyl)acrylamide] | < 100 | < 100 | 
C=CC(=O)Nc1cc(C)ccc1Nc1nc(Nc2cc(OC)nc(N3CCOCC3)c2)ncc1C(F)(F)F [Compound I-94, N-(2-((2-((2-Methoxy-6-morpholinopyridin-4-yl)amino)-5-(trifluoromethyl)pyrimidin-4-yl)amino)-5-methylphenyl)acrylamide] | < 100 | < 100 | 
C=CC(=O)Nc1ccccc1Nc1nc(Nc2cc(OC)nc(OC)c2)ncc1C(F)(F)F [Compound I-95, N-(2-((2-((2,6-Dimethoxypyridin-4-yl)amino)-5-(trifluoromethyl)pyrimidin-4-yl)amino)phenyl)acrylamide] | < 100 | < 100 | 
C=CC(=O)Nc1ccccc1Nc1nc(N[C@H]2CCCN(C(C)=O)C2)ncc1Cl [Compound I-115, (S)—N-(2-((2-((1-acetylpiperidin-3-yl)amino)-5-chloropyrimidin-4-yl)amino)phenyl)acrylamide] | < 100 | < 100 | 

More lines, now with the values ahead:

GI50 [1] [nM] | GI50 [2] [nM] | EC50 [3] [nM] | Compound
< 100 | < 100 |  | C=CC(=O)Nc1cc(C)ccc1Nc1nc(N[C@H]2CCCN(C(=O)CO)C2)ncc1Cl [Compound I-140, (S)—N-(2-((5-chloro-2-((1-(2-hydroxyacetyl)piperidin-3-yl)amino)pyrimidin-4-yl)amino)-5-methylphenyl)acrylamide]
101 to 500 | 101 to 500 |  | C=CC(=O)Nc1cc(C)ccc1Nc1nc(Nc2cc(C(N)=O)ccn2)ncc1Cl [Compound I-238, 2-((4-((2-acrylamido-4-methylphenyl)amino)-5-chloropyrimidin-2-yl)amino)isonicotinamide]
101 to 500 | 101 to 500 |  | C=CC(=O)Nc1cc(OC)ccc1Nc1nc(Nc2cc(Cl)nc(OC)c2)ncc1Cl [Compound I-245, N-(2-((5-chloro-2-((2-chloro-6-methoxypyridin-4-yl)amino)pyrimidin-4-yl)amino)-5-methoxyphenyl)acrylamide]
< 100 | < 100 |  | C=CC(=O)Nc1ccccc1Nc1nc(Nc2cc(Cl)nc(OC)c2)ncc1Cl [Compound I-246, N-(2-((5-chloro-2-((2-chloro-6-methoxypyridin-4-yl)amino)pyrimidin-4-yl)amino)phenyl)acrylamide]
 |  | > 1000 | C=CC(=O)Nc1ccccc1Nc1nc(Nc2cc(F)ccc2C)ncc1C(F)(F)F [Compound I-285, N-(2-((2-((5-Fluoro-2-methylphenyl)amino)-5-(trifluoromethyl)pyrimidin-4-yl)amino)phenyl)acrylamide]
 |  | 101 to 500 | C=CC(=O)Nc1ccccc1Nc1nc(Nc2ccnc(F)c2)ncc1C(F)(F)F [Compound I-287, N-(2-((2-((2-Fluoropyridin-4-yl)amino)-5-(trifluoromethyl)pyrimidin-4-yl)amino)phenyl)acrylamide]
 |  | 101 to 500 | C=CC(=O)Nc1cc(C)ccc1Nc1nc(Nc2ccnc(F)c2)ncc1C(F)(F)F [Compound I-288, N-(2-((2-((2-Fluoropyridin-4-yl)amino)-5-(trifluoromethyl)pyrimidin-4-yl)amino)-5-methylphenyl)acrylamide]
 | < 100 | < 100 | C=CC(=O)Nc1ccccc1Nc1nc(Nc2cc(N[C@H]3CC[C@@H](O)CC3)nc(OC)c2)ncc1C(F)(F)F [Compound I-292]
 |  | < 100 | C=CC(=O)Nc1cc(C)ccc1Nc1nc(Nc2cc(C)nc(OC)c2)ncc1C(F)(F)F [Compound I-295, N-(2-((2-((2-methoxy-6-methylpyridin-4-yl)amino)-5-(trifluoromethyl)pyrimidin-4-yl)amino)-5-methylphenyl)acrylamide]
 | < 100 | < 100 | C=CC(=O)Nc1cc(C)ccc1Nc1nc(Nc2cc(N[C@H]3CC[C@@H](O)CC3)nc(OC)c2)ncc1C(F)(F)F [Compound I-326, N-(2-((2-((2-((cis-4-hydroxycyclohexyl)amino)-6-methoxypyridin-4-yl)amino)-5-(trifluoromethyl)pyrimidin-4-yl)amino)-5-methylphenyl)acrylamide]
 |  | > 1000 | C=CC(=O)Nc1cc(C)ccc1Nc1nc(Nc2cc(OC)ccc2C)ncc1C(F)(F)F [Compound I-341, N-(2-((2-((5-methoxy-2-methylphenyl)amino)-5-(trifluoromethyl)pyrimidin-4-yl)amino)-5-methylphenyl)acrylamide]
